This note sets out measurements from US20260265244A1, “HETEROCYCLIC COMPOUNDS AS STING ANTAGONISTS” (Boehringer Ingelheim International GmbH, priority 2022, published 2026).

T1 sequence (Q86WV6 with tags, fused parts or gaps H232R): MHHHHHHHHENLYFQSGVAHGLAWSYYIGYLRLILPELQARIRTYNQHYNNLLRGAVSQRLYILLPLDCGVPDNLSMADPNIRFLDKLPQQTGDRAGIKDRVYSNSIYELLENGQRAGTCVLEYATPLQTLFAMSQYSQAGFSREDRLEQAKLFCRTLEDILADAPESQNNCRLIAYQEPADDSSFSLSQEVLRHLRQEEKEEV

This test addresses T1, cGAMP binding domain of wild-type (GRR) human STING, residues 155-341 (Homo sapiens, UniProt Q86WV6, H232R).
T1 construct: His-TEV-hSTING (WT); TEV protease cleavage site (N); made in house; host or cells: E. coli BL21 DE3
Put plainly: Increase of stability of STING protein against thermal denaturation, Differential Scanning Fluorimetry (DSF). The essentials: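 3 µM His-tagged protein with 100 uM compound, 5×SYPRO Orange, 2% DMSO in 20 mM Tris, 150 mM NaCl, pH7.5; 15–95 °C ramp in 0.5 °C steps (15 s/cycle). Tm from Boltzmann fit of the dye melt curve, duplicates averaged, repeated if SD>1.5 °C; ΔTm = Tm with compound minus Tm of protein alone.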
A general note: DSF heats the sample and reads unfolding from a dye or from intrinsic fluorescence.
As to `Cc1c(C(C)C)c(-c2cccc3nn(C[C@H](O)c4ccc(OCCN(C)C)cc4)cc23)nn1-c1cc2cn(C)nc2nc1C1CC1` [Example 101], the DSF amounted to 30 K.
`Cc1nc2nn(Cc3cccnc3)cc2cc1-n1nc(-c2cccc3nn(C[C@H](O)c4ccccc4)cc23)c(C(C)C)c1C` [Example 6, (1R)-2-[4-(5-methyl-1-{6-methyl-2-[(pyridin-3-yl)methyl]-2H-pyrazolo[3,4-b]pyridin-5-yl}-4-(propan-2-yl)-1H-pyrazol-3-yl)-2H-indazol-2-yl]-1-phenylethan-1-ol] had a DSF of 29 K.
Next, `Cc1c(C(C)C)c(-c2cccc3nn(C[C@H](O)c4ccccc4)cc23)nn1-c1cc2cn(C)nc2nc1C(C)(C)C` [Example 113, (1R)-2-[4-(1-{6-tert-butyl-2-methyl-2H-pyrazolo[3,4-b]pyridin-5-yl}-5-methyl-4-(propan-2-yl)-1 H-pyrazol-3-yl)-2H-indazol-2-yl]-1-phenylethan-1-ol]: 23 K.
In turn, `Cc1nc2nn(CCCCN3CCN(C)CC3)cc2cc1-n1nc(-c2cccc3nn(C[C@H](O)c4ccccc4)cc23)c(C(C)C)c1C` [Example 45, (1R)-2-[4-(5-methyl-1-{6-methyl-2-[4-(4-methylpiperazin-1-yl)butyl]-2H-pyrazolo[3,4-b]pyridin-5-yl}-4-(propan-2-yl)-1H-pyrazol-3-yl)-2H-indazol-2-yl]-1-phenylethan-1-ol] gave a DSF of 27 K.
The compound `Cn1cc2cc(-c3nc(-c4cccc5nn(C[C@H](O)c6ccccc6)cc45)c(C4CC4)n3C)c(OC(F)F)cc2n1` [Example 34, (1R)-2-(4-{5-cyclopropyl-2-[6-(difluoromethoxy)-2-methyl-2H-indazol-5-yl]-1-methyl-1H-imidazol-4-yl}-2H-indazol-2-yl)-1-phenylethan-1-ol] gave a DSF of 29 K.
In the case of `Cc1nc2nn(C)cc2cc1-n1nc(-c2cccc3nn(C[C@H](OCC4CC4)c4ccccc4)cc23)c(C(C)C)c1C` [Example 63, 2-[(2R)-2-(cyclopropylmethoxy)-2-phenylethyl]-4-(1-{2,6-dimethyl-2H-pyrazolo[3,4-b]pyridin-5-yl}-5-methyl-4-(propan-2-yl)-1H-pyrazol-3-yl)-2H-indazole] it was 22 K; in that of `Cc1nc2nn(CCCN3CCCC3=O)cc2cc1-n1nc(-c2cccc3nn(C[C@H](O)c4ccccc4)cc23)c(C(C)C)c1C` [Example 21, 1-{3-[5-(3-{2-[(2R)-2-hydroxy-2-phenylethyl]-2H-indazol-4-yl}-5-methyl-4-(propan-2-yl)-1H-pyrazol-1-yl)-6-methyl-2H-pyrazolo[3,4-b]pyridin-2-yl]propyl}pyrrolidin-2-one], 30 K.
In the case of `Cc1nc2nn(CCCCO)cc2cc1-n1nc(-c2cccc3nn(C[C@H](O)c4ccccc4)cc23)c(C(C)C)c1C` [Example 12, 4-[5-(3-{2-[(2R)-2-hydroxy-2-phenylethyl]-2H-indazol-4-yl}-5-methyl-4-(propan-2-yl)-1H-pyrazol-1-yl)-6-methyl-2H-pyrazolo[3,4-b]pyridin-2-yl]butan-1-ol] it was 29 K; in that of `Cc1nc2nn(CC(F)F)cc2cc1-n1nc(-c2cccc3nn(C[C@H](O)c4ccccc4)cc23)c(C(C)C)c1C` [Example 103, (1R)-2-(4-{1-[2-(2,2-difluoroethyl)-6-methyl-2H-pyrazolo[3,4-b]pyridin-5-yl]-5-methyl-4-(propan-2-yl)-1H-pyrazol-3-yl}-2H-indazol-2-yl)-1-phenylethan-1-ol], 29 K.
Next, `Cc1c(C(C)C)c(-c2cccc3nn(C[C@H](O)c4ccccc4)cc23)nn1-c1cc2cn(C)nc2[n+]([O-])c1C1CC1` [Example 50, 6-cyclopropyl-5-(3-{2-[(2R)-2-hydroxy-2-phenylethyl]-2H-indazol-4-yl}-5-methyl-4-(propan-2-yl)-1H-pyrazol-1-yl)-2-methyl-2H-pyrazolo[3,4-b]pyridin-7-ium-7-olate]: 26 K; `Cc1nc2nn(CC#N)cc2cc1-n1nc(-c2cccc3nn(C[C@H](O)c4ccccc4)cc23)c(C(C)C)c1C` [Example 98, 2-[5-(3-{2-[(2R)-2-hydroxy-2-phenylethyl]-2H-indazol-4-yl}-5-methyl-4-(propan-2-yl)-1H-pyrazol-1-yl)-6-methyl-2H-pyrazolo[3,4-b]pyridin-2-yl]acetonitrile]: 29 K.
`CCc1nc2nn(C)cc2cc1-c1nc(-c2cccc3nn(C[C@H](F)c4ccccc4)cc23)c(C2CC2)n1C` [Example 107, 4-(5-cyclopropyl-2-{6-ethyl-2-methyl-2H-pyrazolo[3,4-b]pyridin-5-yl}-1-methyl-1H-imidazol-4-yl)-2-[(2R)-2-fluoro-2-phenylethyl]-2H-indazole] came in with a DSF of 31 K.
In the case of `CCCc1nc2nn(C)cc2cc1-n1nc(-c2cccc3nn(C[C@H](O)c4ccccc4)cc23)c(C(C)C)c1C` [Example 60, (1R)-2-[4-(5-methyl-1-{2-methyl-6-propyl-2H-pyrazolo[3,4-b]pyridin-5-yl}-4-(propan-2-yl)-1H-pyrazol-3-yl)-2H-indazol-2-yl]-1-phenylethan-1-ol] it was 28 K; in that of `CNCc1nc2nn(C)cc2cc1-n1nc(-c2cccc3nn(C[C@H](O)c4ccccc4)cc23)c(C(C)C)c1C` [Example 42, (1R)-2-[4-(5-methyl-1-{2-methyl-6-[(methylamino)methyl]-2H-pyrazolo[3,4-b]pyridin-5-yl}-4-(propan-2-yl)-1H-pyrazol-3-yl)-2H-indazol-2-yl]-1-phenylethan-1-ol], 26 K.
In turn, `CC(C)c1c(-c2cccc3nn(C[C@H](O)c4ccccc4)cc23)nc(-c2cc3cn(C)nc3nc2C(F)(F)F)n1C` [Example 57, (1R)-2-(4-{1-methyl-2-[2-methyl-6-(trifluoromethyl)-2H-pyrazolo[3,4-b]pyridin-5-yl]-5-(propan-2-yl)-1H-imidazol-4-yl}-2H-indazol-2-yl)-1-phenylethan-1-ol] displayed a DSF of 27 K.
Next, `Cc1c(C(C)C)c(-c2cccc3nn(C[C@H](O)c4ccccc4)cc23)nn1-c1cc2cn(C)nc2nc1CC1CC1` [Example 54, (1R)-2-(4-{1-[6-(cyclopropylmethyl)-2-methyl-2H-pyrazolo[3,4-b]pyridin-5-yl]-5-methyl-4-(propan-2-yl)-1H-pyrazol-3-yl}-2H-indazol-2-yl)-1-phenylethan-1-ol]: 28 K; `Cc1nc2nn(C3CCOC3)cc2cc1-n1nc(-c2cccc3nn(C[C@H](O)c4ccccc4)cc23)c(C(C)C)c1C` (stereo partly drawn) [Example 14, (1R)-2-(4-{5-methyl-1-[6-methyl-2-(oxolan-3-yl)-2H-pyrazolo[3,4-b]pyridin-5-yl]-4-(propan-2-yl)-1H-pyrazol-3-yl}-2H-indazol-2-yl)-1-phenylethan-1-ol]: 28 K; `CC(C)n1cc2cc(-c3nc(-c4cccc5nn(C[C@H](O)c6ccccc6)cc45)c(C4CC4)n3C)c(C3CC3)nc2n1` [Example 33, (1R)-2-(4-{5-cyclopropyl-2-[6-cyclopropyl-2-(propan-2-yl)-2H-pyrazolo[3,4-b]pyridin-5-yl]-1-methyl-1H-imidazol-4-yl}-2H-indazol-2-yl)-1-phenylethan-1-ol]: 31 K.
In turn, `CC(C)c1c(-c2cccc3nn(C[C@H](O)c4ccccc4)cc23)nc(-c2cc3cn(C)nc3cc2OC(F)(F)F)n1C` [Example 109, (1R)-2-(4-{1-methyl-2-[2-methyl-6-(trifluoromethoxy)-2H-indazol-5-yl]-5-(propan-2-yl)-1H-imidazol-4-yl}-2H-indazol-2-yl)-1-phenylethan-1-ol] returned a DSF of 27 K.
The compound `CO[C@@H](Cn1cc2c(-c3nn(-c4cc5cn(C)nc5nc4C)c(C)c3C(C)C)cccc2n1)c1ccccc1` [Example 52, 4-(1-{2,6-dimethyl-2H-pyrazolo[3,4-b]pyridin-5-yl}-5-methyl-4-(propan-2-yl)-1H-pyrazol-3-yl)-2-[(2R)-2-methoxy-2-phenylethyl]-2H-indazole] registered a DSF of 25 K.
Next, `Cc1c(C(C)C)c(-c2cccc3nn(C[C@H](O)c4ccccc4)cc23)nn1-c1cc2cn(C)nc2nc1CN1CCOCC1` [Example 26, (1R)-2-[4-(5-methyl-1-{2-methyl-6-[(morpholin-4-yl)methyl]-2H-pyrazolo[3,4-b]pyridin-5-yl}-4-(propan-2-yl)-1H-pyrazol-3-yl)-2H-indazol-2-yl]-1-phenylethan-1-ol]: 26 K; `Cn1cc2cc(-c3nc(-c4cccc5nn(C[C@H](O)c6ccc(O)cc6)cc45)c(C4CC4)n3C)c(C3CC3)nc2n1` [Example 55, 4-[(1R)-2-[4-(5-cyclopropyl-2-{6-cyclopropyl-2-methyl-2H-pyrazolo[3,4-b]pyridin-5-yl}-1-methyl-1H-imidazol-4-yl)-2H-indazol-2-yl]-1-hydroxyethyl]phenol]: 29 K.
In the case of `Cc1nc2nn(C)cc2cc1-n1nc(-c2cccc3nn(C[C@H](OCF)c4ccccc4)cc23)c(C(C)C)c1C` [Example 27, 4-(1-{2,6-dimethyl-2H-pyrazolo[3,4-b]pyridin-5-yl}-5-methyl-4-(propan-2-yl)-1H-pyrazol-3-yl)-2-[(2R)-2-(fluoromethoxy)-2-phenylethyl]-2H-indazole] it was 25 K.
In the case of `COC(C)c1nc2nn(C)cc2cc1-n1nc(-c2cccc3nn(C[C@H](O)c4ccccc4)cc23)c(C(C)C)c1C` (stereo partly drawn) [Example 58, (1R)-2-(4-{1-[6-(1-methoxyethyl)-2-methyl-2H-pyrazolo[3,4-b]pyridin-5-yl]-5-methyl-4-(propan-2-yl)-1H-pyrazol-3-yl}-2H-indazol-2-yl)-1-phenylethan-1-ol] it was 28 K.
In turn, `CCc1nc2nn(C)cc2cc1-c1nc(-c2cccc3nn(C[C@H](F)c4ccc(Cl)cc4)cc23)c(C2CC2)n1C` [Example 72, 2-[(2R)-2-(4-chlorophenyl)-2-fluoroethyl]-4-(5-cyclopropyl-2-{6-ethyl-2-methyl-2H-pyrazolo[3,4-b]pyridin-5-yl}-1-methyl-1H-imidazol-4-yl)-2H-indazole] yielded a DSF of 30 K.
